Reference: patent publication US10828276B2, “Combination therapeutics and methods for the treatment of neurodegenerative and other diseases” (APHIOS CORPORATION, priority 2012, dated 2020)

Columns and labels:
[1] = tested on: SH-SY5Y neuroblastoma cells; assay: sAPP-a release from SH-SY5Y cells (6E10 western blot, densitometry); type: cell-based
Method: Cells were treated with RA, Bryostatin-1 (10^−9M)+RA, Bryostatin-1 (10^−10M), RA+Bryostatin-1 (10^−10M) for 3 h.

[2] = tested on: Alzheimer's disease mediated memory loss; assay: Water maze studies in sweAPP/PS1 mice; type: in vivo, Mouse strain B6C3-Tg
Excerpt: Mouse strain B6C3-Tg carrying mutant Swedish Amyloid precursor protein (sweAPP) and PS1 (presenilin-1) genes associated with early onset Alzheimer's disease were subjected to water maze tests at 5-6 months of age.

ADAM10 = ADAM10 expression in SH-SY5Y cells; type: cell-based; conditions: single agents
Excerpt: Therefore, Bryostatin-1 may increase […]-secretase processing through 2 independent mechanisms: (i) activation of PKCs which stimulate[…]secretase; and (ii) increased expression of […]-secretase.

Question: How did the sAPP formation ([1]; 10^−9M Bryostatin-1 alone) turn out when CCC/C=C/C=C/C(=O)O[C@H]1/C(=C/C(=O)OC)C[C@H]2C[C@H]([C@@H](C)O)OC(=O)C[C@H](O)C[C@@H]3C[C@H](OC(C)=O)C(C)(C)[C@](O)(C[C@@H]4C/C(=C/C(=O)OC)C[C@H](/C=C/C(C)(C)[C@]1(O)O2)O4)O3 [Bryostatin-1] was run?
Answer: increased

Question: What about the activity of alpha-secretase ([1]; SH-SY5Y neuroblastoma cells) of the same compound?
Answer: potently stimulate

Question: What about the “sAPPa recovered from culture medium compared to control” value ([1]; single agents, RA 2 μM, Bryostatin-1 10^−10M, 3 h, p<0.05, p<0.01) of the same compound?
Answer: significantly increased

Question: And the “protection against Alzheimer's disease mediated memory loss (water maze)” value ([2]; 5 micrograms/mouse on alternative days orally in an oil formulation, mice 5-6 months of age, vs control animals)?
Answer: significant protection

Question: And the “memory and cognition in AD model” value ([2]; our AD model)?
Answer: enhance memory and cognition

Question: What about the “expression of ADAM10” value (ADAM10) of the same compound?
Answer: significantly increase
